# Results reported in EP0171342A1, “Substituted 2-(1-amino-akylidenyl)1,3-indane diones, process for their preparation and their therapeutical use” (priority 1984, dated 1986).
# Like-named read-outs stand apart in the source and are kept apart here.
# How the values were obtained:
# souris [1] = experiment: Acute toxicity (mortality, LD50) in mice; format: in vivo; details: mouse
# [2] = test system: rat soumis à une surcharge hydrique; experiment: Diuretic activity in rats given a water overload, oral; format: in vivo; details: rat, water overload, oral; for response vs control in vivo at 20 mg/kg: read-out: facteur multipliant l'excrétion urinaire du sodium
# Method: (§1) L'activité diurétique a été déterminée sur plusieurs modèles expérimentaux. Chez le rat soumis à une surcharge hydrique, administrés par voie orale à la dose de 20 mg/kg, le COR3760, le COR3789, le COR3792, le COR4002, le COR4003, le COR4009, le COR4010, le COR4012 et le COR4014 multiplient l'excrétion urinaire du sodium par respectivement un facteur 2,9 - 3,1 - 5,9 - 2,6 - 7,2 - 3,5 - 3,8 - 2,9 - 2,4. Administrés à la dose de 10 mg/kg, dans les mêmes conditions, les COR3760, COR3789, COR3792, COR4003 et COR4010 multiplient l'excrétion sodique par respectivement 2,3 - 2,9 - 2,8 - 2,4 et 2,5. La spironolactone multiplie quant à elle l'excrétion sodique d'un facteur 3,6 à la dose de 20 mg/kg. Administré à la dose de 5 mg/kg dans les mêmes conditions, le COR3792 multiplie l'excrétion sodique par 3,3. Administré par voie orale chez le rat ou la souris soumis à une surcharge saline, le COR3760 augmente l'excrétion urinaire volumétrique mesurée à la sixième heure de respectivement 49, 119 et 134% chez la souris et 28, 84 et 116% chez le rat après administration de 10, 20, et 40 mg/kg. Le COR3760 a été administré par voie orale au rat soumis à une surcharge hydrique et l'excrétion urinaire volumétrique, le sodium et le potassium excrétés ont été mesurés sur une période de 6 heures; ces paramètres ont varié de respectivement +17%, +102%, +165% à 10 mg/kg, +19%, +147%, +180% à 20 mg/kg et +36%, +415% et +239% à 40 mg/kg; le rapport Na/K passe de 0,56 chez les animaux témoins à 0,4 à 10 mg/kg, 0,49 à 20 mg/kg et 0, 8 à 40 mg/ kg. Au cours d'une seconde expérimentation, le COR3760 a entrainé des variations de +19%, +157%, +70% à 40 mg/kg, +19%, +319%, +90% à 60 mg/kg et +29%, +472% et +77% à 80 mg/kg; le rapport Na/K passe de 0,59 chez les animaux témoins à 0,88 à 40, 1,15 à 60 et 1,88 à 80 mg/kg.
# [3] = test system: rat Wistar soumis à une surcharge saline; experiment: Diuretic activity in selected Wistar rats given a saline overload (modified Wiebelhaus test); format: in vivo
# Method: L'activité diurétique des produits selon l'invention a été également déterminée chez le rat Wistar soumis à une surcharge saline selon une modification du test décrit par Wiebelhaus et coll., Fed. Proc., 1960, 19, 364, en procédant à une sélection des animaux. A la dose de 20 mg/kg, les COR4003, COR4008, COR4009, COR4010, COR4011, COR4012, COR4014, COR4016, COR4021, COR4025 augmentent l'excrétion urinaire volumétrique mesurée au bout de 6 heures de respectivement 56, 54, 65, 95, 73, 54, 33, 40, 99 et 92 %. L'excrétion urinaire du sodium augmente de respectivement 56, 24, 42, 59, 43, 33, 29, 43, 31, 83, 26, 99, 40 % toujours à cette dose pour les COR4003, COR4008, COR4009, COR4010, COR4011, COR4012, COR4014, COR4016, COR4017, COR4021, COR4023, COR4025 et COR4026. Le rapport Na/K demeure la plupart du temps inchangé. Testé dans les mêmes conditions le furosémide, administré à la dose de 20 mg/kg entraine 63% d'augmentation de l'excrétion urinaire volumétrique et 53% d'augmentation de l'excrétion urinaire du sodium.
# [4] = test system: rat vigile spontanément hypertendu; experiment: Antihypertensive activity in conscious spontaneously hypertensive rats (indirect tail pressure); format: in vivo; details: SHR, oral, 100 mg/kg
# Method: L'activité antihypertensive a été appréciée chez le rat vigile spontanément hypertendu. La pression artérielle est mesurée de façon indirecte sur la queue 2, 4, 6 heures après l'administration par voie orale du produit à tester. Pour le COR4009, administré à la dose de 100 mg/kg, la réduction de pression est respectivement de 8, 13, 13% à ces échéances.
# [5] = test system: oreillette gauche de cobaye; experiment: Calcium antagonist activity: electrically stimulated guinea pig left atrium; details: 150 beats/min, low-calcium (0,6 mM) Tyrode solution; read-out: concentration qui inhibe de 50% l'augmentation de la force de contraction induite par l'addition de 0,6 mM de calcium
# Method: L'activité anticalcique a été déterminée in vitro sur deux modèles expérimentaux.
# Sur oreillette gauche de cobaye stimulée électriquement à 150 battements/mn dans une solution de Tyrode pauvre en calcium (0,6 mM), les COR3789, COR3792, COR4009, COR4010 et COR4011 employés respectivement à 25, 100, 50, 10 et 25 microg/ml inhibent de 50% l'augmentation de la force de contraction induite par l'addition de 0,6 mM de calcium.
# souris [6] = experiment: Anticonvulsant activity: maximal electroshock convulsions in mice; format: in vivo; details: mouse, oral, 100 mg/kg, one hour after administration
# Source text: L'activité anticonvulsivante est appréciée dans le test de la prévention des convulsions induites par des électrochocs d'intensité maximale.
# souris [7] = experiment: Anticonvulsant activity: bicuculline-induced convulsions in mice; format: in vivo; details: mouse, i.p., 100 mg/kg
# Method: L'activité anticonvulsivante est également déterminée dans le test des inhibitions des convulsions induites par la bicuculline. Des souris reçoivent par voie intrapéritonéale le produit à tester, puis 30 mn et 5 heures plus tard, deux injections séparées de 0,5 mg de bicuculline. […] Les résultats de ce test sont le reflet d'une activité gabaergique directe.
# [8] = Acute toxicity (mortality, LD50) in mice; format: in vivo; details: in vivo; mouse, oral, in solution in Tween 20%; read-out: DL50 (the source's name)
# [9] = test system: souris soumis à une surcharge saline; experiment: Diuretic activity in mice given a saline overload, oral; format: in vivo; details: mouse
# Method: as §1
# [10] = test system: rat soumis à une surcharge saline; experiment: Diuretic activity in rats given a saline overload, oral; format: in vivo
# Method: as §1
# [11] = test system: poumon de cobaye isolé perfusé; experiment: Bronchodilator activity: isolated perfused guinea pig lung contracted by methacholine; details: flow of Tyrode solution, lung contracted by 0,05 microg/ml methacholine; read-out: concentration qui augmente ce débit de 50%
# Source text: L'activité bronchodilatatrice a été déterminée in vitro par la mesure du débit d'une solution de Tyrode à travers un poumon de cobaye isolé perfusé, contracté par l'addition au fluide de perfusion de 0,05 microg/ml de méthacholine. Les COR3760, COR3789, COR3792, COR4003, COR4008, COR4010 et COR4014 utilisés respectivement aux concentrations de 50, 50, 100, 10, 50, 50 et 10 microg/ml augmentent ce débit de 50%. L'aminophylline entraine cette même activité à la concentration de 100 microg/ml.
# [12] = test system: segments d'iléon de cobaye isolés; experiment: Anticholinergic activity: acetylcholine-induced contractions of isolated guinea pig ileum; details: Cavia porcellus; contractions induced by 0,1 microg/ml acetylcholine; read-out: concentration qui inhibe ces contractions de 80%
# Source text: L'activité anticholinergique a été appréciée par la mesure des contractions induites par 0,1 microg/ml d'acétylcholine sur des segments d'iléon de cobaye isolés. Les COR3760, COR3789, COR3792, COR4003, COR4008, COR4010, COR4014 utilisés respectivement aux concentrations de 50, 25, 25, 50, 25, 10, 25 microg/ml inhibent ces contractions de 80%.
# souris [13] = experiment: Antidepressant activity: potentiation of yohimbine toxicity in mice; format: in vivo; details: mouse, yohimbine 15 mg/kg s.c. (non-lethal dose), test product oral 100 mg/kg
# Method: (§2) L'activité antidépressive a été déterminée dans le test de potentialisation de la toxicité de la yohimbine et dans le test de l'inhibition du ptosis induit par la réserpine.
# (§3) On injecte par voie sous cutanée à des souris, lh avant l'administration par voie orale du produit à tester, une dose non léthale de yohimbine soit 15 mg/kg. Le COR3760 administré à la dose de 100 mg/kg entraine 80% de mortalité dans ces conditions. Des souris reçoivent par voie orale le produit à tester 90 mn avant l'injection par voie intrapéritonéale de 5 mg/kg de réserpine solubilisée. On cote le ptosis selon un index allant de 0 à 6, la cote 0 correspondant à un ptosis maximum et la cote 6 à l'absence de ptosis. Les COR3760 et COR4011 conduisent dans les conditions de l'expérience à un ptosis coté à 4 pour une dose de respectivement 200 et 50 mg/kg.
# souris [14] = experiment: Antidepressant activity: inhibition of reserpine-induced ptosis in mice; format: in vivo; details: mouse, oral 200 mg/kg 90 min before reserpine 5 mg/kg i.p.; index 0 (maximum ptosis) to 6 (no ptosis)
# Method: as §2, §3
# [15] = first experiment, 10 mg/kg, 6 hours
# [16] = first experiment, 20 mg/kg, 6 hours
# [17] = first experiment, 40 mg/kg, 6 hours
smiles,measurement,setting,value
"COCCNC(C)=C1C(=O)c2ccccc2C1=O [COR4009, ((Méthoxy-2 éthyl) amino-1 éthylidényl)-2 indanedione-1,3]",mortalité,"souris [1]; intraperitoneal, 200 mg/kg",aucune mortalité
same,mortalité,"souris [1]; oral, 300 mg/kg",aucune mortalité
same,response vs control in vivo at 20 mg/kg,[2]; 20 mg/kg,350%
same,change in vivo at 20 mg/kg,"[3]; 6 h, read-out: augmentation de l'excrétion urinaire volumétrique mesurée au bout de 6 heures",65%
same,change in vivo at 20 mg/kg,[3]; read-out: augmentation de l'excrétion urinaire du sodium,42%
same,réduction de pression,[4]; 2 hours after administration,8%
same,réduction de pression,[4]; 4 hours after administration,13%
same,réduction de pression,[4]; 6 hours after administration,13%
same,IC50,[5],50 µg/mL
same,prévention des convulsions induites par des électrochocs d'intensité maximale,souris [6],on n'observe plus de convulsions
same,inhibition des convulsions induites par la bicuculline,souris [7]; first bicuculline injection (30 min later),inhibe les convulsions induites par la première injection
same,inhibition des convulsions induites par la bicuculline,souris [7]; second bicuculline injection (5 hours later),sans inhiber celles induites par la deuxième
"CNC(C)=C1C(=O)c2ccccc2C1=O [COR3760, (Méthylamino-1 éthylidène)-2 indanedione-1,3]",LD50,[8],736 mg/kg
same,mortalité,"souris [1]; intraperitoneal, 200 mg/kg",aucune mortalité
same,mortalité,"souris [1]; oral, 300 mg/kg",aucune mortalité
same,rapport Na/K,"[2]; first experiment, 10 mg/kg (controls 0,56)","0,4"
same,variation de l'excrétion urinaire volumétrique,[2]; [15],+17%
same,variation du potassium excrété,[2]; [15],+165%
same,variation du sodium excrété,[2]; [15],+102%
same,rapport Na/K,"[2]; first experiment, 20 mg/kg (controls 0,56)","0,49"
same,variation de l'excrétion urinaire volumétrique,[2]; [16],+19%
same,variation du potassium excrété,[2]; [16],+180%
same,variation du sodium excrété,[2]; [16],+147%
same,variation de l'excrétion urinaire volumétrique,[2]; [17],+36%
same,variation du potassium excrété,[2]; [17],+239%
same,variation du sodium excrété,[2]; [17],+415%
same,facteur multipliant l'excrétion sodique,[2]; 10 mg/kg,"2,3"
same,response vs control in vivo at 20 mg/kg,[2]; 20 mg/kg,290%
same,variation de l'excrétion urinaire volumétrique,"[2]; second experiment, 40 mg/kg",+19%
same,variation du potassium excrété,"[2]; second experiment, 40 mg/kg",+70%
same,variation du sodium excrété,"[2]; second experiment, 40 mg/kg",+157%
same,rapport Na/K,"[2]; second experiment, 40 mg/kg (controls 0,59)","0,88"
same,variation de l'excrétion urinaire volumétrique,"[2]; second experiment, 60 mg/kg",+19%
same,variation du potassium excrété,"[2]; second experiment, 60 mg/kg",+90%
same,variation du sodium excrété,"[2]; second experiment, 60 mg/kg",+319%
same,rapport Na/K,"[2]; second experiment, 60 mg/kg (controls 0,59)","1,15"
same,variation de l'excrétion urinaire volumétrique,"[2]; second experiment, 80 mg/kg",+29%
same,variation du potassium excrété,"[2]; second experiment, 80 mg/kg",+77%
same,variation du sodium excrété,"[2]; second experiment, 80 mg/kg",+472%
same,rapport Na/K,"[2]; second experiment, 80 mg/kg (controls 0,59)","1,88"
same,augmentation de l'excrétion urinaire volumétrique mesurée à la sixième heure,[9]; 10 mg/kg,49%
same,augmentation de l'excrétion urinaire volumétrique mesurée à la sixième heure,[9]; 20 mg/kg,119%
same,augmentation de l'excrétion urinaire volumétrique mesurée à la sixième heure,[9]; 40 mg/kg,134%
same,augmentation de l'excrétion urinaire volumétrique mesurée à la sixième heure,[10]; 10 mg/kg,28%
same,augmentation de l'excrétion urinaire volumétrique mesurée à la sixième heure,[10]; 20 mg/kg,84%
same,augmentation de l'excrétion urinaire volumétrique mesurée à la sixième heure,[10]; 40 mg/kg,116%
same,EC50,[11],50 µg/mL
same,IC80,[12],50 µg/mL
same,mortalité,souris [13],80%
same,ptosis coté,souris [14],4
